Experimental findings from PubChem BioAssay AID248 (DTP/NCI, 2004) are described below.

Several values for one entry are separate records, joined by “and”; a condition that tells them apart may be missing. Identical values can stand only once. Inconclusive results and toxic doses are left out.

This test has as its system L1210 leukemia ip in BDF1 mice, survival T/C. The experiment in a line: NCI In Vivo Anticancer Drug Screen. Data for tumor model L1210 Leukemia (intraperitoneal) in B6D2F1 (BDF1) mice. The conditions noted are these: endpoint: mean survival time, higher = longer survival. An outline of the steps:
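Survival endpoint. Drug-treated group vs vehicle group, expressed as T divided by C. Tumor passaged by transplantation.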

Where [1] appears, read: dose: 50.0 mg/kg/injection, schedule: Q01DX001 (ip), vehicle: saline.
The mark [2] stands for this setting: dose: 100.0 mg/kg/injection, schedule: Q01DX001 (ip), vehicle: saline.
Setting [3] is: dose: 100.0 mg/kg/injection, schedule: Q01DX009 (ip), vehicle: Klucel (hydroxypropylcellulose) (HPC).
[4] abbreviates: dose: 100.0 mg/kg/injection, schedule: Q04DX003 (ip), vehicle: Klucel (hydroxypropylcellulose) (HPC).
Setting [5] is: dose: 200.0 mg/kg/injection, schedule: Q01DX001 (ip), vehicle: saline.
Where [6] appears, read: dose: 200.0 mg/kg/injection, schedule: Q01DX009 (ip), vehicle: Klucel (hydroxypropylcellulose) (HPC).
[7] abbreviates: dose: 200.0 mg/kg/injection, schedule: Q04DX003 (ip), vehicle: Klucel (hydroxypropylcellulose) (HPC).
Where [8] appears, read: dose: 400.0 mg/kg/injection, schedule: Q01DX001 (ip), vehicle: saline.
The mark [9] stands for this setting: dose: 400.0 mg/kg/injection, schedule: Q04DX003 (ip), vehicle: Klucel (hydroxypropylcellulose) (HPC).
Setting [10] is: dose: 50.0 mg/kg/injection, schedule: Q01DX001 (ip), vehicle: carboxymethylcellulose (CMC).
[11] abbreviates: dose: 100.0 mg/kg/injection, schedule: Q01DX001 (ip), vehicle: carboxymethylcellulose (CMC).
[12] abbreviates: dose: 200.0 mg/kg/injection, schedule: Q01DX001 (ip), vehicle: carboxymethylcellulose (CMC).
[13] abbreviates: dose: 100.0 mg/kg/injection, schedule: Q01DX009 (ip), vehicle: saline with Tween-80.
Setting [14] is: dose: 100.0 mg/kg/injection, schedule: Q04DX003 (ip), vehicle: saline with Tween-80.
Where [15] appears, read: dose: 200.0 mg/kg/injection, schedule: Q01DX009 (ip), vehicle: saline with Tween-80.
Where [16] appears, read: dose: 200.0 mg/kg/injection, schedule: Q04DX003 (ip), vehicle: saline with Tween-80.
Setting [17] is: dose: 400.0 mg/kg/injection, schedule: Q04DX003 (ip), vehicle: saline with Tween-80.
Setting [18] is: dose: 100.0 mg/kg/injection, schedule: Q01DX001 (ip), vehicle: saline with Tween-80.

As for `O=COCC1CCC(NC(=O)N(CCCl)N=O)CC1` (stereo not given), the T/C is 103 % of control (dose: 2.6 mg/kg/injection, schedule: Q01DX001 (ip), vehicle: Klucel (hydroxypropylcellulose) (HPC)); 111 % of control (dose: 4.0 mg/kg/injection, schedule: Q01DX001 (ip), vehicle: Klucel (hydroxypropylcellulose) (HPC)); 123 % of control (dose: 6.0 mg/kg/injection, schedule: Q01DX001 (ip), vehicle: Klucel (hydroxypropylcellulose) (HPC)); 227 % of control (dose: 9.0 mg/kg/injection, schedule: Q01DX001 (ip), vehicle: Klucel (hydroxypropylcellulose) (HPC)); 293 % of control and 319 % of control (dose: 12.0 mg/kg/injection, schedule: Q01DX001 (ip), vehicle: Klucel (hydroxypropylcellulose) (HPC)); 273 % of control (dose: 15.0 mg/kg/injection, schedule: Q01DX001 (ip), vehicle: Klucel (hydroxypropylcellulose) (HPC)). The T/C (dose: 18.0 mg/kg/injection, schedule: Q01DX001 (ip), vehicle: Klucel (hydroxypropylcellulose) (HPC)) was 328 % of control and the T/C (dose: 26.0 mg/kg/injection, schedule: Q01DX001 (ip), vehicle: Klucel (hydroxypropylcellulose) (HPC)) is 280 % of control.

In the case of `CS(=O)(=O)OCC1CCCO1` (stereo not given), the T/C runs as follows: under setting [1], 107 % of control; under setting [2], 98 % of control; under setting [3], 98 % of control; under setting [4], 108 % of control; under setting [5], 98 % of control; under setting [6], 111 % of control. Besides, the T/C reads like this: under setting [7], 103 % of control; under setting [8], 101 % of control; (dose: 400.0 mg/kg/injection, schedule: Q01DX009 (ip), vehicle: Klucel (hydroxypropylcellulose) (HPC)) 93 % of control; under setting [9], 104 % of control.

For `Cc1ccc2c(c1)C(=O)CCC2`, the T/C was 94 % of control (dose: 177.0 mg/kg/injection, schedule: Q01DX001 (ip), vehicle: saline); 95 % of control under setting [5]; 94 % of control (dose: 266.0 mg/kg/injection, schedule: Q01DX001 (ip), vehicle: saline); 94 % of control and 95 % of control under setting [8]; 96 % of control (dose: 600.0 mg/kg/injection, schedule: Q01DX001 (ip), vehicle: saline).

Take `COC(=O)C(NC(=O)C(C)NC(=O)OC(C)(C)C)C(C)O` (stereo not given): the T/C runs as follows: under setting [2], 101 % of control; under setting [5], 99 % of control; under setting [8], 101 % of control.

Consider `N#CCCN/N=C\c1ccc2c(c1)OCO2`, for which the T/C was 95 % of control under setting [1], 97 % of control under setting [2], 95 % of control under setting [5] and 95 % of control under setting [8].

For `CC(O)C1CCN(Cc2ccccc2)CC1` (stereo not given), the T/C under setting [10] was 101 % of control, the T/C under setting [11] is 108 % of control and the T/C under setting [12] is 106 % of control.

On to `Cc1[nH]c(=S)[nH]c(=O)c1CCSC(=N)N`, for which the T/C was 108 % of control under setting [2] and 103 % of control under setting [5].

Turning to `Cc1ccc(S(=O)(=O)OCC(CO)(COS(=O)(=O)c2ccc(C)cc2)[N+](=O)[O-])cc1`, the T/C (dose: 50.0 mg/kg/injection, schedule: Q01DX009 (ip), vehicle: saline) is 104 % of control; the T/C (dose: 100.0 mg/kg/injection, schedule: Q01DX009 (ip), vehicle: saline) is 94 % of control; the T/C under setting [4] was 97 % of control; the T/C (dose: 200.0 mg/kg/injection, schedule: Q01DX009 (ip), vehicle: saline) is 96 % of control; the T/C under setting [7] was 105 % of control.

As for `Brc1c(N=Cc2ccccc2)ccc2ccccc12`, the T/C is 94 % of control under setting [13]; 102 % of control under setting [14]; 87 % of control under setting [15]; 102 % of control under setting [16]; 89 % of control (dose: 400.0 mg/kg/injection, schedule: Q01DX009 (ip), vehicle: saline with Tween-80); 89 % of control under setting [17].

For `CC1=C(c2ccccc2)C(c2ccccc2)=CC1=O`, the T/C by setting is: under setting [10], 95 % of control; under setting [11], 92 % of control; under setting [12], 92 % of control; (dose: 400.0 mg/kg/injection, schedule: Q01DX001 (ip), vehicle: carboxymethylcellulose (CMC)) 95 % of control.

`COc1ccc(C(C)(C)CC(=O)O)cc1`: the T/C (dose: 50.0 mg/kg/injection, schedule: Q01DX009 (ip), vehicle: saline with Tween-80) was 97 % of control; the T/C under setting [13] was 100 % of control; the T/C under setting [15] is 90 % of control.

For the molecule `Oc1ccc(C2=NNC(c3ccc(O)cc3)=NN2)cc1`, the T/C (dose: 100.0 mg/kg/injection, schedule: Q04DX002 (ip), vehicle: Klucel (hydroxypropylcellulose) (HPC)) is 105 % of control; the T/C (dose: 200.0 mg/kg/injection, schedule: Q04DX002 (ip), vehicle: Klucel (hydroxypropylcellulose) (HPC)) is 97 % of control; the T/C (dose: 400.0 mg/kg/injection, schedule: Q04DX002 (ip), vehicle: Klucel (hydroxypropylcellulose) (HPC)) was 94 % of control.

As to `O=C1CC(=O)c2ccccc21`, the T/C was 98 % of control under setting [14], 92 % of control under setting [16] and 93 % of control under setting [17].

Take `O=C(O)Cc1ccc2ccccc2c1`: the T/C is, setting by setting: under setting [1], 101 % of control; under setting [2], 103 % of control; under setting [5], 107 % of control; under setting [8], 103 % of control.

Turning to `COc1cc(OC(=O)Nc2ccc([N+](=O)[O-])cc2OC)ccc1C=O`, the T/C was 92 % of control (dose: 25.0 mg/kg/injection, schedule: Q01DX009 (ip), vehicle: Klucel (hydroxypropylcellulose) (HPC)); 92 % of control (dose: 50.0 mg/kg/injection, schedule: Q01DX009 (ip), vehicle: Klucel (hydroxypropylcellulose) (HPC)); 105 % of control and 88 % of control under setting [3].

Take `CCN(CC)c1ccc(C=Nc2cccc(C(F)(F)F)c2)cc1`: the T/C reads like this: under setting [3], 105 % of control; under setting [4], 92 % of control; under setting [6], 94 % of control; under setting [7], 94 % of control; under setting [9], 97 % of control.

As to `O=C(O)c1cc(I)c(I)c(I)c1`, the T/C was 97 % of control under setting [14] and 101 % of control under setting [16].

Consider `O=NN(CCCl)C(=O)NC(CCC(=O)O)C(=O)O` (stereo not given), for which the T/C by setting is: (dose: 13.0 mg/kg/injection, schedule: Q01DX001 (ip), vehicle: saline with Tween-80) 123 % of control; (dose: 67.0 mg/kg/injection, schedule: Q01DX001 (ip), vehicle: saline with Tween-80) 200 % of control; under setting [18], 261 % of control; (dose: 150.0 mg/kg/injection, schedule: Q01DX001 (ip), vehicle: saline with Tween-80) 331 % of control; (dose: 224.0 mg/kg/injection, schedule: Q01DX001 (ip), vehicle: saline with Tween-80) 331 % of control; (dose: 335.0 mg/kg/injection, schedule: Q01DX001 (ip), vehicle: saline with Tween-80) 192 % of control.

As to `CC1(c2ccsc2)NC(=O)NC1=O` (stereo not given), the T/C is 93 % of control under setting [2], 93 % of control under setting [5] and 90 % of control under setting [8].

As for `CCCCCCCCCCCCCC(C1CCCCC1)C1CCCCC1`, the T/C is 113 % of control under setting [18]; 93 % of control (dose: 200.0 mg/kg/injection, schedule: Q01DX001 (ip), vehicle: saline with Tween-80); 95 % of control (dose: 400.0 mg/kg/injection, schedule: Q01DX001 (ip), vehicle: saline with Tween-80).
